# Legend:
# [1] = target: T1, MYC protein turnover (Homo sapiens, UniProt P01106); test: cycloheximide (CHX) chase of MYC; type: cell-based; settings: wt HCT116 cells, 5 μM
# T1 construct: Endogenous MYC was immunoprecipitated and detected by western blot analysis; endogenous in cells; host or cells: MCF7, HeLa, P493-6, HCT116 (WT, FBW7-/-, p53-/-)
# Procedure: FIG. 2: MYCMI-7 downregulates MYC and MYCN protein expresión. A) Steady state levels of MYC protein in MCF7 cells after 17 hours exposure to indicated concentrations MYCMI-7 or ellipticine B) MYC mRNA expression in MCF7 cells after treatment with MYCMI-7 for various time points. C) Steady state levels of MYC protein in different HCT116 cell lines (WT, FBW7−/− or p53−/−) after 17 hours exposure to 5 μM MYCMI-7. Endogenous MYC was immunoprecipitated and detected by western blot analysis. D) Cycloheximide (CHX) chase in HCT116 cells. Cells were subjected to 5 μM MYCMI-7 30 min prior cycloheximide addition. Cells were harvested after the indicated time points, MYC was immunoprecipitated using N262 antibody and the MYC levels analyzed using western blot (C33 antibody). E) CHX chase after MYCMI-7 treatment performed as in (D) using Fbxw7-deficient HCT116 cells. F) Stable expression of wt, T58A or S62A MYC in HO15.19 MYC−/− cells. The cells were treated with 5 μM MYCMI-7 overnight, and MYC expression was analyzed by western blot. G) Cartoon showing a linear structural representation of wt MYC and indicated mutants. […]
# For western blot equal amounts of proteins ([…]) were separated on a 4-12% SDS-PAGE gel. Proteins were transferred to Immobilion-P membrane (Millipore) and detected by immunostaining and chemoluminescence (Immobilion western HRP substrate; Millipore). […]
# [2] = tested on: SKN-DZ neuroblastoma cells with MYCN-amplification; test: 3D colony formation in agarose, SK-N-DZ; type: cell-based; settings: 3D cultures, 2 weeks
# [3] = tested on: normal REFs; test: apoptosis assay (Cell Death Detection ELISA), normal REFs; type: cell-based, rat; settings: 5 μM, 24 and 48 hours
# Procedure: FIG. 4: MYCMI-7 induces apoptosis in malignant cells and growth arrest in normal cells. A) Cell cycle distribution analysis by flow cytometry of MYC-regulated P493-6 cells and normal rat embryo fibroblasts (REFs). Left panel, P493-6 synchronized in G0 by 24 hours treatment of […] doxycycline. Doxycycline was removed and the cells were harvested 48 hours after the addition of fresh medium containing DMSO or 5 μM MYCMI-7. Right panel, flow cytometry analysis of normal REFs treated with DMSO or 5 μM MYCMI-7. B) Apoptosis assay using the Cell Death Detection ELISA^plus kit. Left panel, immortalized Rat1 fibroblasts with different MYC status after 24 hours of 5 μM MYCMI-7 treatment, middle panel and right panels, normal REFs and normal peripheral blood lymphocytes, respectively, after 24 and 48 hours of 5 μM MYCMI-7 treatment. C) Measurement of viability and apoptosis by Apo-Tox Glo Triplex assay in A375 melanoma cells after 3 days of treatment with MYCMI-7 with the indicated concentrations. […] E) NHDFs treated with 3 μM MYCMI-7 for 72 hrs. Viability was measured by trypan blue exclusion assay. F) Cell growth measured with Cyt62 assay of primary normal human epidermal melanocytes (NHEM) treated for 72 hours with MYCMI-7, G) Viability measured by trypan blue exclusion assay of NHEM after treatment for 72 hours with MYCMI-7.
# [4] = pharmacokinetics in mice; settings: 6.25 mg/kg i.p.
# [5] = tested on: MYCN-amplified SK-N-DZ neuroblastoma xenograft; test: SK-N-DZ neuroblastoma xenograft
# [6] = tested on: MCF-7 breast carcinoma cells; test: RNA-seq gene set enrichment analysis; settings: 5 μM, 24 hrs
# [7] = 6.25 mg/kg intratumoral twice a week
# T1 sequence (P01106 16-454): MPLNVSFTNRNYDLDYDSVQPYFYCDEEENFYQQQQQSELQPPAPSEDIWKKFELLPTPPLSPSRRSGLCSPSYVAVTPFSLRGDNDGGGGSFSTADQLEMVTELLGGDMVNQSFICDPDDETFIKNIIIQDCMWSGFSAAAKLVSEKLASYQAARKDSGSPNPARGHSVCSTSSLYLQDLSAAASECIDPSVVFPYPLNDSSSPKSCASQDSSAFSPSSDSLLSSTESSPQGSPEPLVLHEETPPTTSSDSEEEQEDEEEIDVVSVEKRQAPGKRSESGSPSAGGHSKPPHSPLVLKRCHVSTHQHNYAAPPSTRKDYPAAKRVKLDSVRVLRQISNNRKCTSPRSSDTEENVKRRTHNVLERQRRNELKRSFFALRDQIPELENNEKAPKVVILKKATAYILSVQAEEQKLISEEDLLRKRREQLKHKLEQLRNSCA
compound,measurement,setting,value
"CCN(CC)CC[n+]1ccc2c(C)c3[nH]c4ccccc4c3c(C)c2c1 [MYCMI-7, 2-(5,11-Dimethyl-6H-25-pyrido[4,3-b]carbazol-2-yl)-N,N-diethylethanamine bromide]",turnover rate of MYC (CHX chase),[1],increased
same,GI50,[2],nanomolar range
same,apoptosis,[3],did not induce apoptosis
same,detection in the brain,[4],could not be detected
same,survival,[5]; [7],significantly increased survival
same,tumor growth,[5]; [7],reduced tumor growth
same,H&E staining of tumor tissue,"[5]; mouse, in vivo",massive apoptosis and/or necrosis as well as hemorrhage
same,MYCN expression in tumor cells (IHC),"[5]; mouse, in vivo",strong reduction in MYCN expression
same,GSEA of differentially expressed genes: MYC and E2F target genes,[6],downregulation

# Reference: patent US20250122193A1, “NOVEL PYRIDOCARBAZOLIUM COMPOUNDS AND MEDICAL USES THEREOF” (MyCural Therapeutics, priority 2021, published 2025)
